US7932262B2 (Novartis AG, priority 2006, dated 2011)

Assays:
[1] = molecular target: T1, PDK1 kinase (Homo sapiens, UniProt O15530); assay: PDK1 Kinase Alpha Screen Assay; type: biochemical; details: read-out: PDK1 IC50
T1 sequence (O15530 1-556): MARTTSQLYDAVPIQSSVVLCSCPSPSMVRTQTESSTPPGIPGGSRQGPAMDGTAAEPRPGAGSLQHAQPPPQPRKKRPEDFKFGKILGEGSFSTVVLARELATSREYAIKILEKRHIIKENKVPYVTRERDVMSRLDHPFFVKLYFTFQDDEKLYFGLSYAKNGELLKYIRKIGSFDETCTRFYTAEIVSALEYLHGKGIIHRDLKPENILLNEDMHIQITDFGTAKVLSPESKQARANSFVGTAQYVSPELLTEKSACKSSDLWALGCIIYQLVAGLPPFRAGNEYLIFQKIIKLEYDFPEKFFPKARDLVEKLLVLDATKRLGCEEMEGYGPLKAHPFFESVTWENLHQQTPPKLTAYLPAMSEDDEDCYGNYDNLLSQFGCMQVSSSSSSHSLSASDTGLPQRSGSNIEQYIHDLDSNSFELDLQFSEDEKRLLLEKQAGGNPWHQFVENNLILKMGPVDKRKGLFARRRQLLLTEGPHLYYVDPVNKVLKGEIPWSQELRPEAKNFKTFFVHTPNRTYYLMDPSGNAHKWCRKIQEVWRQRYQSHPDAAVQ
How it was run: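 Test compounds were incubated with PDK1 kinase, 10 uM ATP and 50 nM biotinylated peptide substrate for 3-18 hours at pH 7.5 with 2.5% DMSO. Peptide phosphorylation was then detected by AlphaScreen proximity luminescence using a phospho-(Ser/Thr) PKA substrate antibody.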

[2] = test system: PC-3 cells; assay: Cell Proliferation Assay (Cell Titer Glo), PC-3 cell line; type: cell-based; details: Homo sapiens, PC-3, 72 h, PC-3 cells, 3 days incubation; read-out: CP EC50 PC3
How it was run: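 PC-3 cells, 1000 cells/well, left to adhere 3-5 h, then exposed for 3 days at 37° C to compounds as 1:3 serial dilutions from 500× DMSO stocks diluted in growth medium. Medium then replaced with fresh medium and viability read by Cell Titer Glo luminescence.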

[3] = test system: pAkt308 (phosphorylation of Akt at T308) in PC-3 cells; assay: pAkt T308 ECL Assay in PC-3 cells; type: cell-based; details: Homo sapiens, 6 h, six hours with compound, read-out: PAKT308 PC3 IC50
Method: VI. The pAkt^T308 ECL Assay Protocol
On Day 1, PC-3 cells were seeded at 15,000 cells/well in 100 μL/well ([…]) growth media into black-walled, clear bottom, poly-L-lysine coated plates. The cells were incubated overnight in a 37° C., 5% CO2 incubator.
On Day 2, a MSD ECL plate was blocked for two hours with 150 μL per well of 3% MSD blocker A.
Test compounds were diluted to 500× in DMSO and then were subjected to further serial dilution using a BioMek 2000 instrument. DMSO diluted compounds were then diluted into growth media and then added to the cell plates.
The cell plates incubated with compounds for six hours in a 37° C., 5% CO2 incubator after which the growth medium was removed and 55 μl of MSD lysis buffer was added to cell plates on ice. The plates were lysed on ice for five minutes followed by 15 minutes of vigorous shaking on a plate shaker at 4° C. The blocked MSD assay plates were washed twice with 1×MSD wash buffer followed by the addition of cell lysate as follows: 30 μl of cell lysate was added to the pAkt308 plates and 13 μl of lysate+12 μl lysis buffer was added to the tAkt plates. The plates were then sealed and shaken at 4° C. overnight.
On Day 3, the MSD plates were washed four times with 1×MSD wash buffer then, 25 μl/well of MSD SULFO-TAG antibodies diluted to 10 nM final concentration in 1% blocker. A buffer was added to the antibody diluent which was added to assay plates. The plates were then sealed and incubated at RT for 1.5 hour. The plates were then washed twice with 1×MSD wash buffer followed by the addition of 150 μl/well of 1.5×MSD read buffer. The plates were read immediately after the addition of read buffer using a Trilux instrument. […]

[4] = test system: A2780 cells; assay: Cell Proliferation Assay (Cell Titer Glo), A2780; type: cell-based; details: Homo sapiens, 72 h; A2780 cells, 3 days incubation; read-out: CPEC50 A2780
How it was run: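 Cells seeded at 1000/well, allowed to adhere 3-5 h, then exposed to DMSO-dissolved compounds for 3 days at 37° C., 5% CO2. Medium replaced before Cell Titer Glo addition; luminescence read after 10 min.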

| IC50 [1] [µM] | EC50 [2] [µM] | IC50 [3] [µM] | EC50 [4] [µM] | Structure (SMILES) |
| --- | --- | --- | --- | --- |
| < 5 | – | 5 to 10 | < 5 | NS(=O)(=O)c1ccc(Nc2ncc3ccc(-c4ncco4)c(OC4CCNCC4)c3n2)cc1 [Compound 26, 4-[7-Oxazol-2-yl-8-(piperidin-4-yloxy)-quinazolin-2-ylamino]-benzenesulfonamide] |
| < 5 | – | < 5 | < 5 | NS(=O)(=O)c1ccc(Nc2ncc3ccc(-c4nccs4)c(OC4CCNCC4)c3n2)cc1 [Compound 27, 4-[8-(Piperidin-4-yloxy)-7-thiazol-2-yl-quinazolin-2-ylamino]-benzenesulfonamide] |
| < 5 | < 5 | < 5 | < 5 | NS(=O)(=O)c1ccc(Nc2ncc3cccc(OC4CCNCC4)c3n2)cc1 [Compound 31, 4-[8-(Piperidin-4-yloxy)-quinazolin-2-ylamino]-benzenesulfonamide] |
| < 5 | < 5 | < 5 | < 5 | CC(C)N1CCC(Oc2cccc3cnc(Nc4ccc(S(N)(=O)=O)cc4)nc23)CC1 [Compound 36, 4-[8-(1-Isopropyl-piperidin-4-yloxy)-quinazolin-2-ylamino]-benzenesulfonamide] |
| < 5 | – | < 5 | < 5 | CNC(=O)c1ccc(Nc2ncc3cccc(OC4CCN(C(C)C)CC4)c3n2)cc1 [Compound 43, 4-[8-(1-Isopropyl-piperidin-4-yloxy)-quinazolin-2-ylamino]-N-methyl-benzamide] |
| < 5 | – | 5 to 10 | < 5 | NS(=O)(=O)c1ccc(Nc2ncc3ccc(-c4cnccn4)c(OC4CCNCC4)c3n2)cc1 [Compound 66, 4-[8-(Piperidin-4-yloxy)-7-pyrazin-2-yl-quinazolin-2-ylamino]-benzenesulfonamide] |
| < 5 | – | < 5 | < 5 | NS(=O)(=O)c1ccc(Nc2ncc3ccc(-c4cccnc4)cc3n2)cc1 [Compound 133, 4-(7-Pyridin-3-yl-quinazolin-2-ylamino)-benzenesulfonamide] |
| < 5 | – | 5 to 10 | < 5 | COc1cncc(-c2ccc3cnc(Nc4ccc(S(N)(=O)=O)cc4)nc3c2)c1 [Compound 138, 4-[7-(5-Methoxy-pyridin-3-yl)-quinazolin-2-ylamino]-benzenesulfonamide] |

Further lines, the molecule ahead of its results:

| Structure (SMILES) | IC50 [1] [µM] | EC50 [2] [µM] | IC50 [3] [µM] | EC50 [4] [µM] |
| --- | --- | --- | --- | --- |
| NS(=O)(=O)c1ccc(Nc2ncc3cc(Br)cc(OC4CCNCC4)c3n2)cc1 [Compound 1, 4-[6-Bromo-8-(piperidin-4-yloxy)-quinazolin-2-ylamino]-benzenesulfonamide] | < 5 | < 5 | 5 to 10 | < 5 |
| NS(=O)(=O)c1ccc(Nc2ncc3cc(Br)cc(OC4CN5CCC4CC5)c3n2)cc1 (centres unmarked) [Compound 2, 4-[8-(1-Aza-bicyclo[2.2.2]oct-3-yloxy)-6-bromo-quinazolin-2-yl-amino]-benzenesulfonamide] | < 5 | < 5 | < 5 | < 5 |
| O=S(=O)(c1ccc(Nc2ncc3cccc(OC4CCNCC4)c3n2)cc1)N1CCOCC1 [Compound 3, [4-(Morpholine-4-sulfonyl)-phenyl]-[8-(piperidin-4-yloxy)-quinazolin-2-yl]-amine] | < 5 | < 5 | < 5 | < 5 |
| CC(C)N1CCC(Oc2cccc3cnc(Nc4ccc(S(=O)(=O)N5CCOCC5)cc4)nc23)CC1 [Compound 4, [8-(1-Isopropyl-piperidin-4-yloxy)-quinazolin-2-yl]-[4-(morpholine-4-sulfonyl)-phenyl]-amine] | < 5 | < 5 | < 5 | < 5 |
| CC(C)NS(=O)(=O)c1ccc(Nc2ncc3cccc(OC4CCNCC4)c3n2)cc1 [Compound 11, N-Isopropyl-4-[8-(piperidin-4-yloxy)-quinazolin-2-ylamino]-benzenesulfonamide] | < 5 | < 5 | < 5 | < 5 |
| COCCNS(=O)(=O)c1ccc(Nc2ncc3cccc(OC4CCNCC4)c3n2)cc1 [Compound 12, N-(2-Methoxy-ethyl)-4-[8-(piperidin-4-yloxy)-quinazolin-2-ylamino]-benzenesulfonamide] | < 5 | < 5 | < 5 | < 5 |
| O=S(=O)(NC1CC1)c1ccc(Nc2ncc3cccc(OC4CCNCC4)c3n2)cc1 [Compound 13, N-Cyclopropyl-4-[8-(piperidin-4-yloxy)-quinazolin-2-ylamino]-benzenesulfonamide] | < 5 | < 5 | < 5 | < 5 |
| O=S(=O)(NCCN1CCCC1)c1ccc(Nc2ncc3cccc(OC4CCNCC4)c3n2)cc1 [Compound 14, 4-[8-(Piperidin-4-yl-oxy)-quinazolin-2-ylamino]-N-(2-pyrrolidin-1-yl-ethyl)-benzenesulfonamide] | < 5 | < 5 | 5 to 10 | < 5 |
| NS(=O)(=O)c1ccc(Nc2ncc3ccc(-c4cn[nH]c4)c(OC4CCNCC4)c3n2)cc1 [Compound 24, 4-[8-(Piperidin-4-yloxy)-7-(1H-pyrazol-4-yl)-quinazolin-2-ylamino]-benzenesulfonamide] | < 5 | – | 5 to 10 | < 5 |
| Cn1cc(-c2ccc3cnc(Nc4ccc(S(N)(=O)=O)cc4)nc3c2OC2CCNCC2)cn1 [Compound 25, 4-[7-(1-Methyl-1H-pyrazol-4-yl)-8-(piperidin-4-yloxy)-quinazolin-2-ylamino]-benzenesulfonamide] | < 5 | – | 5 to 10 | < 5 |
| NS(=O)(=O)c1ccc(Nc2ncc3ccc(-c4ccccn4)c(OC4CCNCC4)c3n2)cc1 [Compound 28, 4-[8-(Piperidin-4-yloxy)-7-pyridin-2-yl-quinazolin-2-ylamino]-benzenesulfonamide] | < 5 | – | 5 to 10 | < 5 |
| CN1CCC(Oc2cccc3cnc(Nc4ccc(S(N)(=O)=O)cc4)nc23)CC1 [Compound 35, 4-[8-(1-Methyl-piperidin-4-yloxy)-quinazolin-2-ylamino]-benzenesulfonamide] | < 5 | – | < 5 | < 5 |
| NS(=O)(=O)c1ccc(Nc2ncc3cccc(O[C@@H]4CCNC4)c3n2)cc1 [Compound 37, 4-[8-((R)-Pyrrolidin-3-yloxy)-quinazolin-2-ylamino]-benzenesulfonamide] | < 5 | – | 5 to 10 | < 5 |
| NS(=O)(=O)c1ccc(Nc2ncc3cccc(O[C@@H]4CN5CCC4CC5)c3n2)cc1 [Compound 40, 4-[8-((S)-3-quinuclidinyloxy)-quinazolin-2-ylamino]-benzenesulfonamide] | < 5 | < 5 | < 5 | < 5 |
| CCN1CCC(Oc2cccc3cnc(Nc4ccc(S(N)(=O)=O)cc4)nc23)CC1 [Compound 46, 4-[8-(1-Ethyl-piperidin-4-yloxy)-quinazolin-2-ylamino]-benzenesulfonamide] | < 5 | – | 5 to 10 | < 5 |
| CC(C)Cn1cc(-c2ccc3cnc(Nc4ccc(S(N)(=O)=O)cc4)nc3c2OC2CCNCC2)cn1 [Compound 65] | < 5 | – | 5 to 10 | < 5 |
